Test results from patent publication US11299715B2, “Use of iNOS inhibitors to increase viral yield in culture” (priority 2013, dated 2022).

Tests used:
iNOS = assay: Western blot of iNOS in HSV-1 d27.1-infected V27 cell lysates; type: cell-based, African green monkey; details: 30 μM ATA; d27.1 MOI 1; V27 lysates 24 h.p.i.; with or without 10% FBS
Procedure: V27 cells in Dulbecco's Modified Eagles Medium (DMEM) (Hyclone, Waltham, Mass.) were infected with the HSV-1 d27.1 vector at an MOI of 1 and treated with 30 μM ATA (Sigma, St. Louis, Mo.), with or without 10% fetal bovine serum (FBS). Control experiments without ATA were also performed. V27 cell lysates were obtained 24 hours post infection (h.p.i.) and Western blots were run on the lysates and iNOS protein was detected by using purified rabbit anti-iNOS/NOS Type II pAb (BD Biosciences, Cat#610332).

rAAV-GFP vector = assay: rAAV production by rHSV-rep2/cap2 and rHSV-EGFP co-infection of 293 cells; type: cell-based, AAV
Procedure: 293 cells (2.5×10^6) were simultaneously co-infected with both rHSV-rep2/cap2 and rHSV-EGFP vectors as described by Kang et al., Gene Ther (2009) 16:229-239. At 2-4 hr post infection, infectious medium was exchanged with DMEM+10% FBS equivalent to double the preinfection culture volume. At the time of harvest, the cell pellet was frozen at −80° C. DRP titers were quantified by real-time polymerase chain reaction (qPCR) in a96-well block thermocycler (Applied Biosystems; 7500 Real Time PCR system). Crude samples were subjected to three cycles of freezing and thawing, then incubated in the presence of Benzonase (250 U/ml), 2 mM MgCl2, 1% final concentration protein grade Tween 80 (Calbiochem) and incubated at 37° C. for 60 min, followed by 0.25% Trypsin (Gibco) digestion at 50° C. for 60 min. Finally, treatment with DNase I (50 U/ml; Promega) at 37° C. for 30 min, and then denatured at 95° C. for 20 min. Linearized plasmidpDC67/+SV40 was used to generate standard curves. The primer-probe set was specific for the simian virus 40 (SV40) poly(A) sequence: rAAV-F: 5′-[…]-3′ (SEQ ID NO:4); rAAV-R: 5′-[…]-3′ (SEQ ID NO:5); rAAV-Probe: 5′ 6-FAM-[…]-TAMRA-3′ (SEQ ID NO:6).
In order to determine whether the presence of ATA during HSV production impacted the yield of rAAV virions produced using HSV vectors, the following experiment was performed showing rAAV titers affected by ATA residue present from rHSV-1 stocks produced in 293 cells (FIG. 5A). […] One-way ANOVA; Tukey's-test:*p<0.05; 20 μM ATA vs. No ATA; n=4 independent experiments.
This effect was not observed when the ATA concentrations were higher then 20 μM (FIG. 5B).

NOS1 = nNOS = assay: Affymetrix Gen Array, NOS1 expression in 293 cells; type: cell-based, human; details: for NOS1 expression, ATA: ATA alone
Procedure: Confluent 293 cells (2.4×10^6 cells in a 75 cm^2 flask) were cultured in DMEM+10% FCS for approximately 20 hrs and were then infected with one plaque forming unit per cell (PFU/cell) of HSV-1 MacIntyre Strain for 90 min. ATA at a concentration 20 μM (final) was added 90 min post-infection. The infected cells were harvested at 24 h after infection. Total RNA of sufficient quality and quantity was isolated from suspension using RNeasy Plus Mini Kit (QIAGEN, Valencia, Calif.) according to the manufacturer's instructions. Whole genome expression profiling was performed on Affymetrix Human U133 Plus 2.0 Array by the Asuragen, Inc. 3 μg total RNA was provided as input material.
Overall, RNA quality assessed on the bioanalyzer had RIN values of >9. Array hybridization and scaling factors were within passing quality control range. After scanning, raw expression CEL files were processed with Affymetrix Expression Console vs.1.1.2 (affymetrix.com). Each CEL file was processed with Robust Multichip Analysis (RMA) and a summarized table was exported as a text file. All downstream genomics and statistical analyses were done with JMP Genomics (version 5) (jmp.com/software/genomics). First, a filtering step was applied to filter-out low expression, specifically, those values below 6 in log^2 mode in at least 2 out of 8 samples. Out of 54,675 total Affy U133 Plus2 probes, 41,569 (76%) probes remained after the cutoff. Two positive control samples were also seen, human brain and pooled human universal reference RNA, respectively, that hybridized well. For future analysis, these two samples were excluded.
The first principle component separation (91.7%) is therefore explained by the effect of HSV versus Vehicle. Data was median-normalized across each probe to have a median signal of 0. ANOVA was performed to find significant differential transcripts between HSV versus Vehicle, ATA versus Vehicle, […] versus Vehicle, and HSV+ATA versus HSV alone. Multiple testing corrections were not included, and significant genes were considered less that p-value of 0.01.
To identify cell response gene signatures to wtHSV-1 McIntyre infection, transcriptional profiling was done using Affymetrix Human U133 Plus 2.0 Array with 293 cells that were either mock-treated, ATA-treated (ATA), wtHSV-1 McIntyre-infected (HSV) or ATA-treated and wtHSV-1 McIntyre-infected (HSV&ATA) for 24 h. Gene expression changes induced by infection or ATA treatment were identified by referencing the gene expression level for each probe to that corresponding in the uninfected cells sample. HSV-1 infection alone had strong impact on the gene expression profile of 293 cells when compared to untreated cells gene profile.

[1] = tested on: rHSV-1 d27-1 (d27-1) vector; assay: ATA-HSV protocol: rHSV-1 d27-1 vector yield in V27 cell supernatants; type: cell-based, HSV-1; details: V27 cells, n=10, ATA 50 μM at Step 1, final 20 μM

## O=C(O)C1=CC(=C(c2ccc(O)c(C(=O)O)c2)c2ccc(O)c(C(=O)O)c2)C=CC1=O [ATA, 5-((3-carboxy-4-hydroxyphenyl)(3-carboxy-4-oxo-2,5-cyclohexadien-1-ylidene)methyl)-2-hydroxybenzoic acid]
iNOS
  iNOS expression (Western blot): inhibits
rAAV-GFP vector; 10 μM ATA, 2 hrs co-infection step
  rAAV titer, ATA spiked into 293 cell media during co-infection: increase
rAAV-GFP vector; 20 μM ATA added during infection
  rAAV titers using HSV stock prepared with 20 μM ATA: slightly increased
rAAV-GFP vector; ATA higher than 20 μM spiked into 293 cell media
  rAAV titer increase at higher spiked ATA concentrations: not observed
rAAV-GFP vector; ATA present in rHSV-1 stocks
  influence of ATA in rHSV-1 stocks on rAAV yield: did not negatively influence
rAAV-GFP vector; rHSV-rep2/cap2 stock prepared with 20 μM ATA (Step 1), about 3 μM ATA during rAAV production, n=4
  increase of rAAV DRP/ml titer versus No ATA control: 1.3 times
rAAV-GFP vector; stock prepared with 12 μM ATA, n=4
  rAAV titer with rHSV-rep2/cap2 stock prepared with 12 μM ATA: No significant rAAV titer increase
NOS1 = nNOS; probe 207310_s_at
  NOS1 expression, ATA: 1
NOS1 = nNOS; probe 207310_s_at, HSV alone 2.79
  NOS1 expression, HSV + ATA: 1.67
NOS1 = nNOS; probe 240911_at
  NOS1 expression, ATA: 1.02
NOS1 = nNOS; probe 240911_at, HSV alone 1.71
  NOS1 expression, HSV + ATA: 1.5
[1]; 6-well plates, MOI 0.15
  increase of d27-1 titer after ATA addition: 6.1 times
[1]; without ATA 5.4×10^7
  d27-1 titer after ATA addition: 1.1×10^8 DRP/ml
